The test system of experiment [1] is Gram-positive major pathogens. Description: Non-inferiority randomized clinical trial: bacteriological cure in cows with subclinical mastitis. The experiment is classed as in vivo. The method, then: (§1) A non-inferiority randomized clinical trial was conducted, following methodology described in Schukken et al., “Noninferiority Trial Comparing a First-Generation Cephalosporin With a Third-Generation Cephalosporin in the Treatment of Nonsevere Clinical Mastitis in Dairy Cows,” J. Dairy Sci. 96(10): 6763-74 (2013). […] Ha: [Rcure(cefquinome)−Rcure(P-PRP)]>−Δ [2] where “Rcure”is the cure risk and “Δ” is the non-inferiority margin. Results were interpreted according to the principles for a non-inferiority trial (Piaggio et al., “Reporting of Noninferiority and Equivalence Randomized Trials: Extension of the CONSORT 2010 Statement,” JAMA 308(24): 2594-604 (2012); Schukken et al. (2013)).
The milk samples were streaked onto agar plates containing 5% sheep blood and 0.1% esculin. The agar plates were incubated at 37.5° C. and visually inspected at 24 hours and 48 hours for bacterial growth. Morphology and Gram staining were used for initial identification. A catalase test was used to differentiate staphylococci from streptococci, and a coagulase test was performed on catalase-positive cocci to confirm presence of Staphylococcus aureus. Gram-positive and catalase-negative cocci were differentiated by their reaction to the hydrolysis of esculin under ultraviolet light. The Christie, Atkins, Munch-Petersen (CAMP) test and esculin reaction were used to differentiate Streptococcus agalactiae and Streptococcus dysgalactiae, and esculin reaction and culture in enterococcosel agar (from Becton-Dickinson, Durham, N.C., USA) were used to identify Streptococcus uberis. Their morphology and Gram staining were used to identify Corynebacterium species. Growth in McConckey agar and further biochemical tests, such as citrate, indole, oxidase and motility, were used to identify coliforms. Those cultures that presented more than two bacterial species were considered contaminated and not informative of intramammary infection. […]

A further experiment deals with Streptococcus uberis. Kind of experiment: Non-inferiority trial: bacteriological cure, Strep. uberis infections. The experiment is classed as in vivo, cows. As to conditions: Strep. uberis cases; margin −0.175; 95% CI; FIG. 6. The method, then: as §1
(§2) The milk samples were streaked onto agar plates containing 5% sheep blood and 0.1% esculin. The agar plates were incubated at 37.5° C. and visually inspected at 24 hours and 48 hours for bacterial growth. Morphology and Gram staining were used for initial identification. A catalase test was used to differentiate staphylococci from streptococci, and a coagulase test was performed on catalase-positive cocci to confirm presence of Staphylococcus aureus. Gram-positive and catalase-negative cocci were differentiated by their reaction to the hydrolysis of esculin under ultraviolet light. […]

For another experiment, the system named is Streptococcus agalactiae. Description: Non-inferiority trial: bacteriological cure, Strep. agalactiae infections. The experiment is classed as in vivo, cows. The method, then:
as §1, §2

Experiment [2] can be described thus: Somatic cell count (LnSCC) in milk of treated cows. The experiment is classed as in vivo. The following applies: days 21, 22, 47, 48 vs day 0; FIG. 7. The source says: Two individual composite milk samples were aseptically collected from each cow during the first visit to the herd in order to select the cows to be treated for subclinical mastitis. These milk samples were refrigerated and submitted to Universidad de Caldas for analysis, with one of the samples being used for analysis of subclinical mastitis using an automated cell counter (FOSSOMATIC, from Foss, Hillerod, Denmark). The subclinical mastitis results were expressed as the natural log (LnSCC), in thousands/mL to normalize the data distribution. […]
Cure was defined at the cow level. […] Cure risk was statistically assessed for initial treatment (samples taken at days 21 and 22) and treatment of refractory cases samples (samples taken at days 47 and 48), independently. […]
The statistical analyses of LnSCC and the milk concentration of IL-1, IL-2, IL-4, IL-6, IL-8, IFN-γ, and TNF-αresults were done using linear regression. […] The linear regression model used was: y=intercept+treatment+herd+parity+LnSCC+error [4] where y corresponds to LnSCC after treatment on days 21 and 47 for cows treated one or two times, respectively, and the milk concentrations of IL-1, IL-2, IL-4, IL-6, IL-8, IFN-γ, and TNF-α, which were measured only at days 0 and 21. […]

The test system of another experiment is IFN-γ. Kind of experiment: Cytokine concentrations in milk of treated cows (ELISA). The experiment is classed as in vivo. The method, then: Once cows were treated, composite milk samples from both treated groups were collected at days 21 and 22 after treatment for SCC and microbiological analyses. Procedures for SCC and microbiology were previously described. Treatment was repeated in cows that remained positive for major Gram-positive bacteria, receiving the same product used for the first treatment 4 days after collecting the second milk sample. A final milk sampling was conducted on all refractory cases 21 and 22 days after the repeated treatment. Individual cow SCC, including laboratory data and pre- and post-treatment concentration of cytokines (IL-1, IL-2, IL-4, IL-6, IL-8, IFN-γ, and TNF-α), were generated for each milk sample. No more than two treatment attempts per cow were performed and used in the study.
Proteins were analyzed in hemoderivatives and whole milk using commercial ELISA development kits from R&D Systems (Minneapolis, Minn., USA) with the exception of […]. PDGF-BB (Human PDGF-BB DuoSet, DY220), TGF-β1 (Human TGF-β1 DuoSet, DY240E), and PF4 (Human CXCL4/PF4 Duoset, DY795), which were determined using human antibodies. […]
On the technique in general: ELISA stands for enzyme-linked immunosorbent assay.

In the case of `CO/N=C(\C(=O)N[C@@H]1C(=O)N2C(C(=O)[O-])=C(C[n+]3cccc4c3CCCC4)CS[C@H]12)c1csc(N)n1.O=S(=O)(O)O` [cefquinome sulphate], the “Risk difference for bacteriological cure, non-inferiority interpretation” value in experiment [1] (all cases, margin −0.175, 95% CI, FIG. 6) was “better”; with Streptococcus uberis it was “better”; in the experiment with Streptococcus agalactiae (Strep. agalactiae cases, margin −0.175, 95% CI, FIG. 6), “better, although non-inferiority is inconclusive”. Moreover, the “Overall bacteriological cure, percent of cows” value in experiment [1] (cows with subclinical mastitis, EG n=54, RG n=49) is 71%. In experiment [1] (cows with subclinical mastitis, intramammary infusion, three consecutive milkings, EG n=54, RG n=49), the “Overall bacteriological cure, number of cows” value is reported as 35 cows. Moreover, the “Cure risk for Strep. agalactiae” value in the experiment on Streptococcus agalactiae (in vivo) came out at 100%. Further, the “Change of mean LnSCC in milk after the start of the trial” value in experiment [2] is “no differences”. Further, the “Concentration of IFN-γ in milk, change” value with IFN-γ (by day 47 in cows treated twice) is reported as “increased”. Besides, in the experiment with IFN-γ (days 0 and 22), the “Concentration of IFN-γ in milk, comparison between groups” value is reported as “higher”.

These data come from patent US11197893B2, “Pure platelet-rich plasma (P-PRP) composition for treatment of subclinical mastitis and methods of producing and using the same” (Universidad de Caldas, priority 2016, dated 2021).
